This note sets out measurements from US9040691B2, “Hydroxymethylaryl-substituted pyrrolotriazines as ALK1 inhibitors” (BAYER INTELLECTUAL PROPERTY GMBH, priority 2011, dated 2015).

Counter-ions that a name gives are not always drawn.

Chain of ALK1 kinase (P37023 22-503): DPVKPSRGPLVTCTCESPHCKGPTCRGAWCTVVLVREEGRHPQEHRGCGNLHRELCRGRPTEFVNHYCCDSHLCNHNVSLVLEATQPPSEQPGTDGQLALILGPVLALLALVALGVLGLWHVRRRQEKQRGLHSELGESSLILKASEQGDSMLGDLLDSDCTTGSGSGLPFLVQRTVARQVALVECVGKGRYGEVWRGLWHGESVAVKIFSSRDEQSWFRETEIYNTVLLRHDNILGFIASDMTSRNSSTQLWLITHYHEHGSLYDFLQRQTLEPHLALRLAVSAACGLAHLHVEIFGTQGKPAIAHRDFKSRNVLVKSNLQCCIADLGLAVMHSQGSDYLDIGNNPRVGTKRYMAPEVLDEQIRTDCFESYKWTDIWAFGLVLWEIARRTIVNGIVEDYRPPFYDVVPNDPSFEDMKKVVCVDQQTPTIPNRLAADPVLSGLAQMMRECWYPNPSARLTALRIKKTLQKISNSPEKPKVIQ

This experiment has as its target ALK1 kinase (Homo sapiens (Human), UniProt P37023). The experiment can be described thus: In vitro enzyme inhibition using scintillation of incorporated radio label (flashplate assay). The format is biochemical. The conditions noted are these: biotinylated α-casein, 33P-ATP, 500 nM ATP. The procedure:
B-1a. In Vitro Enzyme Inhibition Using Scintillation of Incorporated Radio Label (Flashplate Assay)
Test compounds diluted in DMSO are mixed with a suitable substrate/co-substrate (here: biotinylated α-casein and ^33P-ATP) in a corresponding assay buffer. Addition of the enzyme of interest (here: ALK1 kinase) starts the enzyme reaction. The enzyme-catalyzed incorporation of radio label into the substrate is measured via scintillation. Incorporated radio label is separated from free radio label via specific binding of the biotinylated substrate to strepavidin-coated microtiter plates (flashplates) and concomitant washing steps. The scintillation signal intensity (counts per minutes, cpm) is proportional to the enzyme activity. Enzyme inhibition results in a decreased signal intensity. IC50 values of the test compounds are determined by cpm-versus-[I] plots.
Reaction buffer contains 50 mM Tris pH 8.0 (Sigma), 1 mM MnCl2 (Sigma), 0.01% Nonidet P40 (Fluka), 0.5× Complete EDTA-free protease inhibitors (Roche; contains a mixture of several protease inhibitors for the inhibition of serine and cysteine (but not metallo-) proteases; 1 tablet contains protease inhibitors sufficient for a 50 ml cell extract; the concentration used in this assay corresponds to 1 tablet in 100 ml).
• 1.) Stop solution: Dulbecco's PBS (PAA, Pasching, Austria), 25 mM EDTA (Sigma), 25 μM ATP (Roche), 0.05% Triton X-100 (Sigma); • 2.) Saturation buffer: Dulbecco's PBS (PAA, Pasching, Austria), 100 μM ATP (Roche), 0.2% Triton X-100 (Sigma); • 3.) Wash buffer: Dulbecco's PBS (PAA, Pasching, Austria). Enzyme Solution:
ALK1 (Invitrogen, Paisley, United Kingdom) stock solution (35.7 ng/μl) is diluted to 4 ng/μl; final concentration in the reaction is 1 ng/μl.
Dephosphorylated α-casein (Sigma) is biotinylated according to the manufacturer's protocol (Pierce, Bonn, Germany) resulting in a stock solution of 61.6 μM. Briefly, EZ-Link® Biotin reagent (sulfosuccinimidyl-6-(biotinamido)hexanoate; Pierce, Bonn, Germany) is added in equal molarity to α-casein and incubated on ice for 2 h. Afterwards, the biotin reagent is removed by dialysis (2×2 h and overnight).
A 100 mM solution of cold (unlabelled) ATP (Roche) is diluted 1:100 before each test. For the substrate mix, α-casein is diluted to 2.22 μM resulting in a final concentration of 1 μM α-casein in the reaction. Additionally, cold ATP is added to give a 1.11 μM solution which results in a final concentration of 500 nM in the reaction.
Radioactive ATP Solution:
The stock solution (9.25 MBq/25 μl of ^33P-ATP; Perkin Elmer, Rodgau, Germany) is diluted to 651.2 Bq/μl.
Compounds are dissolved in 100% DMSO (10 mM stock solution) and diluted to 2 mM. Further dilutions are made stepwise 1:3.16 in DMSO.
A volume of 9 μl substrate solution is provided into each well of a 384 well microliter plate (Greiner Bio-One, Solingen, Germany), 1 μl compound solution and 5 μl of the radioactive ATP solution are added. Enzyme reaction starts with addition of 5 μl of enzyme solution. The mixture is incubated for 60 minutes at room temperature and then stopped by addition of 10 μl stop solution. The 384 well microliter flashplates (Perkin Elmer, Rodgau, Germany) are saturated with 50 μl saturation buffer per well for at least 60 minutes. Subsequently, a volume of 20 μl is discarded and replaced with 20 μl of the stopped ALK1 reaction mixture. Binding of biotinylated substrate to the flashplate is allowed for by overnight incubation at room temperature. Bound substrate is separated from unbound components through repeated washing steps (3×50 μl washing buffer per well). Finally, 50 μl washing buffer is added, and the scintillation signal (cpm) is measured in a suitable counter (Perkin Elmer, Rodgau, Germany).
Broadly, the IC50 is the midpoint of a concentration-inhibition curve. A lower IC50 goes with inhibition by little substance. As for `Nc1ncnn2c(CN3CCC(O)CC3)cc(-c3cc(F)c(CO)c(F)c3)c12` [Example 25, 1-({4-Amino-5-[3,5-difluoro-4-(hydroxymethyl)phenyl]pyrrolo[2,1-f][1,2,4]triazin-7-yl}methyl)piperidin-4-ol], the IC50 was 65 nM. The compound `Nc1ncnn2c([C@H]3CCCNC3)cc(-c3cc(F)c(CO)c(F)c3)c12` [Example 12, (4-{4-Amino-7-[(3S)-piperidin-3-yl]pyrrolo[2,1-f][1,2,4]triazin-5-yl}-2,6-difluorophenyl)methanol] yielded an IC50 of 5.9 nM. For the compound `Nc1ncnn2c(CN3CCC(O)C3)cc(-c3cc(F)c(CO)c(F)c3)c12` (stereo not shown) [Example 26, 1-({4-Amino-5-[3,5-difluoro-4-(hydroxymethyl)phenyl]pyrrolo[2,1-f][1,2,4]triazin-7-yl}methyl)pyrrolidin-3-ol], inhibition was half-maximal at 30 nM (IC50). The figure for `Nc1ncnn2c(CCCCO)cc(-c3ccc(CO)cc3)c12` [Example 4, 4-{4-Amino-5-[4-(hydroxymethyl)phenyl]pyrrolo[2,1-f][1,2,4]triazin-7-yl}butan-1-ol] is 1 nM. The figure for `Cc1nc(-c2cc(-c3cc(F)c(CO)c(F)c3)c3c(N)ncnn23)cs1` [Example 14, {4-[4-Amino-7-(2-methyl-1,3-thiazol-4-yl)pyrrolo[2,1-f][1,2,4]triazin-5-yl]-2,6-difluorophenyl}-methanol] is 5.3 nM. The figure for `Cc1cc(-c2cc(CN3CCOCC3)n3ncnc(N)c23)ccc1CO` [Example 23, {4-[4-Amino-7-(morpholin-4-ylmethyl)pyrrolo[2,1-f][1,2,4]triazin-5-yl]-2-methylphenyl}methanol] is 30 nM; for `CCc1nc(-c2cc(-c3ccc(CO)cc3)c3c(N)ncnn23)cs1` [Example 15, {4-[4-Amino-7-(2-ethyl-1,3-thiazol-4-yl)pyrrolo[2,1-f][1,2,4]triazin-5-yl]phenyl}methanol] it is 60 nM; for `Nc1ncnn2c(CN3CCOCC3)cc(-c3ccc(CO)cc3)c12` [Example 19, {4-[4-Amino-7-(morpholin-4-ylmethyl)pyrrolo[2,1-f][1,2,4]triazin-5-yl]phenyl}methanol] it is 19 nM.

`CCc1nc(-c2cc(-c3cc(F)c(CO)c(F)c3)c3c(N)ncnn23)cs1` [Example 16, {4-[4-Amino-7-(2-ethyl-1,3-thiazol-4-yl)pyrrolo[2,1-f][1,2,4]triazin-5-yl]-2,6-difluorophenyl}-methanol]: 2.6 nM corresponded to half-maximal inhibition (IC50). Compound `Nc1ncnn2c(CN3CCNCC3)cc(-c3ccc(CO)cc3)c12` [Example 18, {4-[4-Amino-7-(piperazin-1-ylmethyl)pyrrolo[2,1-f][1,2,4]triazin-5-yl]phenyl}methanol] came in with an IC50 of 80 nM. `Nc1ncnn2c(C3(O)CCCNC3)cc(-c3cc(F)c(CO)c(F)c3)c12` (racemic) [Example 9, rac-3-{4-Amino-5-[3,5-difluoro-4-(hydroxymethyl)phenyl]pyrrolo[2,1-f][1,2,4]triazin-7-yl}-piperidin-3-ol] displayed an IC50 of 5.7 nM. The figure for `NCc1nc(-c2cc(-c3cc(F)c(CO)c(F)c3)c3c(N)ncnn23)cs1` [Example 34, (4-[4-Amino-7-[2-(aminomethyl)-1,3-thiazol-4-yl]pyrrolo[2,1-f][1,2,4]triazin-5-yl]-2,6-difluorophenyl)methanol] is 4.1 nM.

`Cc1nc(-c2cc(-c3ccc(CO)cc3)c3c(N)ncnn23)cs1` [Example 13, {4-[4-Amino-7-(2-methyl-1,3-thiazol-4-yl)pyrrolo[2,1-f][1,2,4]triazin-5-yl]phenyl}methanol] displayed an IC50 of 4 nM. `CC(O)c1cc(-c2cc(F)c(CO)c(F)c2)c2c(N)ncnn12` (racemic) [Example 44, rac-1-{4-Amino-5-[3,5-difluoro-4-(hydroxymethyl)phenyl]pyrrolo[2,1-f][1,2,4]triazin-7-yl}-ethanol] displayed an IC50 of 3.8 nM. Compound `Cc1cc(-c2cc(C3CCCNC3)n3ncnc(N)c23)cc(F)c1CO` (stereo not shown) [Example 31, {4-[4-Amino-7-(piperidin-3-yl)pyrrolo[2,1-f][1,2,4]triazin-5-yl]-2-fluoro-6-methylphenyl}-methanol] displayed an IC50 of 4 nM. In the case of `Nc1ncnn2c(C3(O)CCCCC3)cc(-c3cc(F)c(CO)c(F)c3)c12` [Example 33, 1-{4-Amino-5-[3,5-difluoro-4-(hydroxymethyl)phenyl]pyrrolo[2,1-f][1,2,4]triazin-7-yl}cyclohexanol trifluoroacetate], 15 nM corresponded to half-maximal inhibition (IC50). Take `Nc1ncnn2c(C(O)C3CCOCC3)cc(-c3cc(F)c(CO)c(F)c3)c12` (stereo not shown) [Example 6, {4-Amino-5-[3,5-difluoro-4-(hydroxymethyl)phenyl]pyrrolo[2,1-f][1,2,4]triazin-7-yl}(tetrahydro-2H-pyran-4-yl)methanol]: half-maximal inhibition (IC50) was put at 40 nM.

Consider `Nc1ncnn2c(C3CCNCC3)cc(-c3ccc(CO)cc3)c12` [Example 10, {4-[4-Amino-7-(piperidin-4-yl)pyrrolo[2,1-f][1,2,4]triazin-5-yl]phenyl}methanol], for which the IC50 came to 8 nM. In turn, `Nc1ncnn2c(CN3CCOCC3)cc(-c3ccc(CO)nc3)c12` [Example 24, {5-[4-Amino-7-(morpholin-4-ylmethyl)pyrrolo[2,1-f][1,2,4]triazin-5-yl]pyridin-2-yl}methanol] had an IC50 of 140 nM. `Nc1ncnn2c(CN3CCCC(O)C3)cc(-c3cc(F)c(CO)c(F)c3)c12` (stereo not shown) [Example 27, 1-({4-Amino-5-[3,5-difluoro-4-(hydroxymethyl)phenyl}pyrrolo[2,1-f][1,2,4]triazin-7-yl]methyl)piperidin-3-ol]: the IC50 was found to be 70 nM. The figure for `COc1cc(-c2cc([C@H]3CC[C@H](O)CC3)n3ncnc(N)c23)cc(F)c1CO` [Example 29, trans-4-{4-Amino-5-[3-fluoro-4-(hydroxymethyl)-5-methoxyphenyl]pyrrolo[2,1-f][1,2,4]triazin-7-yl}cyclohexanol] is 1 nM. The figure for `Cc1cc(-c2cc(C3CCNC3)n3ncnc(N)c23)cc(F)c1CO` (stereo not shown) [Example 32, {4-[4-Amino-7-(pyrrolidin-3-yl)pyrrolo[2,1-f][1,2,4]triazin-5-yl]-2-fluoro-6-methylphenyl}-methanol] is 4 nM.
